# System: NCIMB 11955
# Conditions: USM, 1% glucose, 60° C., 250 rpm, grown for 36 hours; flasks with 0, 1, 2, 3 or 4% ethanol; FIG. 1
# Description: Ethanol tolerance of a wild-type organism (NCIMB 11955) was tested in order to determine the starting point. The organism was grown overnight (LB agar plate, 60° C.) and a colony used to inoculate an overnight culture (100 mL USM, 1% glucose, 60° C., 250 rpm). This culture was then used to inoculate a triplicate series of flasks containing 0, 1, 2, 3, or 4% ethanol which were then grown for 36 hours before the growth was measured (50 mL USM, 1% glucose, 60° C., 250 rpm).
smiles,measurement,value
CCO [ethanol],ethanol concentration tolerated (growth measured),≤ 4%

# Reference: US20080305536A1, “Method for Culturing Microorganisms” (priority 2005, published 2008)
